Assay results taken from patent US11730712B2, “Functionalized long-chain hydrocarbon mono- and di-carboxylic acids and derivatives thereof, and their use for the prevention or treatment of disease” (ESPERVITA THERAPEUTICS, INC., priority 2021, dated 2023).
Where two headings read alike, the source gives them in different places.

Key:
[1] = tested on: C57BL6J mice on high fat high fructose diet; assay: Hepatic de novo lipogenesis (14C-glucose incorporation) in murine model of NASH; assay type: in vivo, mouse; conditions: for inhibition at 10 mg/kg / inhibition at 30 mg/kg / inhibition at 60 mg/kg: Mus musculus
Description: Experimental Protocol. FIG. 17A describes the study protocol. Mice were dosed daily for 7 days with a single dose of either Compound I-32 or Compound I-1 at a dose of 10 mg/kg, 30 mg/kg or 60 mg/kg. On the 8th day of the experiment mice receive final dose of Compound I-32 or Compound I-1, followed one hour later by an I.P. bolus of 14-C Glucose.
C57BL6J (8 weeks of age) were obtained for the Jackson Laboratory and fed a normal chow diet upon arrival. At ˜10 weeks of age, mice were given a diet containing high fat and high fructose (Rodent Diet with 40 kcal % Fat (Mostly Palm Oil), 20 kcal % fructose, and 0.02% cholesterol, obtained from Research Diets, Product Code: D19101102) and housed at thermoneutral conditions (26-29° C.). […] On the morning of day 8, animals received a final dose and after 1 hour […] (PerkinElmer) was administered at a concentration of 12 μCi per mouse in a volume of 0.1 ml in 0.9% saline I.P. One hour after ^14C-glucose was given, animals were anesthetized by I.P. injection of Ketamine/Xylazine (150 mg/12.4 mg/kg, respectively). Blood was drawn through cardiac puncture; the liver was removed, and a sample was from the left lobe and frozen in liquid nitrogen. Liver tissue was chipped on dry-ice and the weight of the chip weight recorded (30-50 mg of tissue). Liver tissue was homogenized in 1 ml of 2:1 chloroform:methanol using a bead homogenizer at 5000 rpm for 2×12 seconds. Samples were incubated with gentle shaking at 4° C. for 2 hours, vortexed for 2×12 seconds, and then centrifuge at 7000 rpm for 10 minutes at 4° C. The supernatant was transferred to a 1.5 ml Eppendorf and 200 μl of 0.9% saline was added. Samples were vortexed for 2×12 seconds and centrifuged at 3000 rpm for 10 minutes at 4° C. 200 μl of the lower organic phase was removed and added to 5 ml of scintillation fluid. The amount radioactivity in the sample was measured by scintillation counting. The number of disintegrations per minute (DPM) were determined over a 5-minute period and normalized to the amount of liver tissue. 5-10 μl of plasma obtained at termination was also counted and lipid/gram tissue counts were normalized to plasma counts. Statistical comparisons were carried out using a one-way ANOVA followed by Dunnett's post hoc test using GraphPad Prism 8 software. A p-value of less than or equal to 0.05 was used as the criterion of significance.

[2] = tested on: hepatic cell death pathways (pyroptosis, necroptosis, apoptosis); assay: Hepatic cell death pathways by Western blot (gasdermin D, cleaved caspase 3, cleaved RIP3); assay type: in vivo, mouse; conditions: liver samples from HFCC/CDX mice, 100 mg/kg QD oral, 2 weeks
Description: Compound I-1 and Compound I-32 were tested for their ability to alter hepatic cell death pathways (i.e., pyroptosis, necroptosis, and apoptosis) using liver samples from Example 7. Detection was performed on liver sections obtained from the experiment described in Example 7. Paraffin sections were deparaffinized. Western blot analysis was performed by the We-Met platform. Toulouse. France, France. Commercial primary antibodies for Gasdermin D (reference ab209845; Abcam, Cambridge, UK), cleaved caspase 3 (reference 9664, Cell Signaling Technology. Danvers, Mass.), cleaved receptor interacting protein 3 (RIP3; reference ab56164; Abcam) and actin (reference 4970; Cell Signaling Technology) for control, were used on the WES automated western blot system (Proteinsimple, San Jose, Calif.). Data are presented as mean±SEM, with n=6-10 mice per experimental group, as indicated in the legends. Two-way analysis of variance with Bonferroni post-test. Mann-Whitney U-test, or unpaired two-tailed Student's t-test were used for statistical analysis using GraphPad Prism software (GraphPad Software, La Jolla, Calif.). A P<0.05 was considered significant.

[3] = tested on: Hepa1-6 cells; assay: Hepa1-6 cell proliferation; assay type: cell-based; conditions: with or without regorafenib (5 μM)
Excerpt: FIG. 37 show anti-proliferative effect of illustrative compounds of the invention in Hepa1-6 cells.

[4] = 10 mg/kg, read-out: % change from vehicle control, hepatic de novo lipogenesis (inhibition)
[5] = 30 mg/kg, read-out: % change from vehicle control, hepatic de novo lipogenesis (inhibition)
[6] = 60 mg/kg, read-out: % change from vehicle control, hepatic de novo lipogenesis (inhibition)

## CC(C)(CCCCc1ccc(CCCCC(C)(C)C(=O)O)cc1)C(=O)O [Compound I-1, 6-[4-(5-carboxy-5-methylhexyl)-phenyl]-2,2-dimethylhexanoic acid]
[1]; 30 mg/kg
  % change from vehicle control, hepatic de novo lipogenesis (inhibition): 55.65%
[1]; 60 mg/kg
  % change from vehicle control, hepatic de novo lipogenesis (inhibition): 68.96%
[1]; [4]
  inhibition at 10 mg/kg: 17.8%
[1]; [5]
  inhibition at 30 mg/kg: 56%
[1]; [6]
  inhibition at 60 mg/kg: 69%
[2]
  hepatic cell death pathways (pyroptosis, apoptosis, necroptosis) by Western blot: significantly repressed pyroptosis and apoptosis cell death pathways with a trend towards necroptosis
[3]
  effect on proliferation: anti-proliferation effect

## CC(C)(CCCCc1cccc(CCCCC(C)(C)C(=O)O)c1)C(=O)O [Compound I-32, 6-[3-(5-carboxy-5-methylhexyl)-phenyl]-2,2-dimethylhexanoic acid]
[1]; 10 mg/kg
  % change from vehicle control, hepatic de novo lipogenesis (inhibition): 48.79%
[1]; 30 mg/kg
  % change from vehicle control, hepatic de novo lipogenesis (inhibition): 37.42%
[1]; 60 mg/kg
  % change from vehicle control, hepatic de novo lipogenesis (inhibition): 52.90%
[1]; 10 mg/kg, 30 mg/kg and 100 mg/kg, all three doses tested (as printed in text), read-out: inhibition of liver lipogenesis
  inhibition at 10 mg/kg: ~50%
[1]; [4]
  inhibition at 10 mg/kg: 49%
[1]; [5]
  inhibition at 30 mg/kg: 37%
[1]; [6]
  inhibition at 60 mg/kg: 53%
[2]
  hepatic cell death pathways (pyroptosis, apoptosis, necroptosis) by Western blot: significantly repressed pyroptosis and apoptosis cell death pathways with a trend towards necroptosis
[3]
  effect on proliferation: anti-proliferation effect
